EC50 data for nine molecules are collected here from patent publication US12344610B2, “APOL1 inhibitors and methods of use” (Maze Therapeutics, Inc., priority 2022, dated 2025).

By EC50 is commonly meant the midpoint of the concentration-response curve.

In assay [1] the test system is HEK293 clonal cell line overexpressing APOL1 G1. The assay can be described thus: APOL1 G1 HEK293 cell rescue assay (Example B3). To be noted: geometric mean of at least 2 runs, † = single run, ¥ = concentration at 50% rescue estimated (no sigmoidal curve). The class given is cell-based. The method, then:
Compounds were also assayed in a HEK293 clonal cell line overexpressing APOL1 G1 by a method similar to that shown in Example B2 above.
Unless otherwise specified, EC50 values are reported as the geometric mean of at least 2 assay runs on separate days. Each run represents the average of a technical replicate, where each compound was assayed twice in the same plate. A superscript † symbol indicates a value from the average of a technical replicate from a single assay run, where each compound was assayed twice in the same plate. A ¥ symbol represents compound concentration at 50% rescue estimated due to lack of sigmoidal curve preventing curve fitting. Compounds in Table 41 are referred to by the corresponding Compound Number in Table 1, which is also referred to in the synthetic examples. When one or more of the numbered compounds are identified by stereochemistry (for example, (R)- or (S)-), the specific stereoisomer for which data is provided in Table 41 may be identified by the elution order of such compound as described in the synthetic examples. Absolute stereochemistry of such compounds may be identified by methods known in the art. For Table 41 below, n/a represents “not available”.
Rescue EC50 values reported in Table 41 below represent the half-maximal effective concentration for reversal of cell death caused by overexpression of APOL1.

Assay [2] deals with HEK293 cells overexpressing APOL1 G2. Briefly: APOL1 G2 HEK293 cell rescue assay (reversal of cell death caused by overexpression of APOL1). It is filed as cell-based. To be noted: geometric mean of at least 2 assay runs, † = single assay run. The method, then:
Unless otherwise specified, EC50 values are reported as the geometric mean of at least 2 assay runs on separate days. Each run represents the average of a technical replicate, where each compound was assayed twice in the same plate. A superscript t symbol indicates a value from the average of a technical replicate from a single assay run, where each compound was assayed twice in the same plate. Compounds in Table 40 are referred to by the corresponding Compound Number in Table 1, which is also referred to in the synthetic examples. When one or more of the numbered compounds are identified by stereochemistry (for example, (R)- or (S)-), the specific stereoisomer for which data is provided in Table 40 may be identified by the elution order of such compound as described in the synthetic examples. Absolute stereochemistry of such compounds may be identified by methods known in the art. For Table 40 below, n/a represents “not available”.
Rescue EC50 values reported in Table 40 below represent the half-maximal effective concentration for reversal of cell death caused by overexpression of APOL1.

Where [3] appears, read: Homo sapiens, HEK293, HEK293 clonal line overexpressing APOL1 G1.
Setting [4] is: Homo sapiens, HEK293, HEK293 overexpressing APOL1 G2.
Where [5] appears, read: HEK293 clonal line overexpressing APOL1 G1.

Consider `CP(C)(=O)C1(c2ncc(OCCN3CCC4(CC3)C(=O)Nc3ccc(Cl)cc34)cn2)CC1` [Compound 344, 5-chloro-1′-[2-({2-[1-(dimethylphosphoryl)cyclopropyl]pyrimidin-5-yl}oxy)ethyl]-1,2-dihydrospiro[indole-3,4′-piperidin]-2-one], for which the EC50 in assay [1] (setting [3]) is 254 nM; in assay [2] (setting [4]), 194 nM.

In the case of `CC(O)c1ncc(OCCN2CCC3(CC2)C(=O)Nc2ccc(C(F)F)cc23)cc1C(F)(F)F` (stereo not drawn) [Compound 296, 5-(difluoromethyl)-1′-(2-{[6-(1-hydroxyethyl)-5-(trifluoromethyl)pyridin-3-yl]oxy}ethyl)-1,2-dihydrospiro[indole-3,4′-piperidin]-2-one], the values for the EC50 in assay [1] (setting [3]) and in assay [2] (setting [4]) were 159 nM and 77.3 nM, respectively.

For `CC1(O)CC(c2ncc(OCCN3CCC4(CC3)C(=O)Nc3ccc(Cl)cc34)cn2)C1` (stereo not drawn) [Compound 373, 5-chloro-1′-(2-{[2-(3-hydroxy-3-methylcyclobutyl)pyrimidin-5-yl]oxy}ethyl)-1,2-dihydrospiro[indole-3,4′-piperidin]-2-one], the figures for the EC50 in assay [1] (setting [3]) and in assay [2] (setting [4]) were 133 nM and 53.4 nM, respectively.

As to `CC(COc1ccc(S(C)(=O)=O)cc1)N1CCC2(CC1)C(=O)N(C1CC(O)C1)c1ccc(Cl)cc12` (single isomer, unassigned) [Compound 206, 5-chloro-1′-[(2S) or (2R)-1-(4-methanesulfonylphenoxy)propan-2-yl]-1-[(cis) or (trans)-3-hydroxycyclobutyl]-1,2-dihydrospiro[indole-3,4′-piperidin]-2-one], the EC50 in assay [1] (setting [5]) is 4310 nM; in assay [2] (HEK293 overexpressing APOL1 G2), more than 9540 nM.

As for `CS(=O)(=O)C1(c2ccc(OCCN3CCC4(CC3)C(=O)Nc3ccc(C(F)F)cc34)cc2)CC(O)C1` (stereo not drawn) [Compound 280, 5-(difluoromethyl)-1′-{2-[4-(3-hydroxy-1-methanesulfonylcyclobutyl)phenoxy]ethyl}-1,2-dihydrospiro[indole-3,4′-piperidin]-2-one], the EC50 is 235 nM in assay [1] (setting [3]) and 80 nM in assay [2] (setting [4]).

Turning to `O=C1Nc2ccc(Cl)cc2C12CCN(CCOc1cnc(C(O)CO)nc1)CC2` (single isomer, unassigned) [Compound 378, 5-chloro-1′-[2-({2-[(1S or 1R)-1,2-dihydroxyethyl]pyrimidin-5-yl}oxy)ethyl]-1,2-dihydrospiro[indole-3,4′-piperidin]-2-one], the figures for the EC50 in assay [1] (setting [5]) and in assay [2] (HEK293 overexpressing APOL1 G2) were approximately 1000 nM and 388 nM, respectively.

For the molecule `O=C1CCc2cc(OCCN3CCC4(CC3)C(=O)Nc3ccc(Cl)cc34)cnc2N1C1CC(O)(C2CC2)C1` (stereo not drawn) [Compound 299, 5-chloro-1′-(2-{[8-(3-cyclopropyl-3-hydroxycyclobutyl)-7-oxo-5,6,7,8-tetrahydro-1,8-naphthyridin-3-yl]oxy}ethyl)-1,2-dihydrospiro[indole-3,4′-piperidin]-2-one], the concentration giving a half-maximal response (EC50) was 63.6 nM in assay [1] (setting [3]) and 21.3 nM in assay [2] (setting [4]).

For `CC(CO)(c1ncc(OCCN2CCC3(CC2)C(=O)Nc2ccc(Cl)cc23)cc1C(F)(F)F)S(C)(=O)=O` (single isomer, unassigned) [Compound 403, 5-chloro-1′-[2-({6-[(2R or 2S)-1-hydroxy-2-methanesulfonylpropan-2-yl]-5-(trifluoromethyl)pyridin-3-yl}oxy)ethyl]-1,2-dihydrospiro[indole-3,4′-piperidin]-2-one], the EC50 in assay [1] (setting [5]) was 144 nM; in assay [2] (HEK293 overexpressing APOL1 G2), 95.7 nM.

Consider `C[C@]1(O)C[C@@H](n2c(=O)[nH]c3cc(OCCN4CCC5(CC4)C(=O)Nc4ccc(Cl)cc45)cnc32)C1` [Compound 374, 5-chloro-1′-[2-({2-oxo-3-[(cis)-3-hydroxy-3-methylcyclobutyl]-1H,2H,3H-imidazo[4,5-b]pyridin-6-yl}oxy)ethyl]-1,2-dihydrospiro[indole-3,4′-piperidin]-2-one], for which the EC50 in assay [1] (setting [3]) was 216 nM; in assay [2] (setting [4]), 101 nM.
